The target in one data set is FGFR2 (h) (Homo sapiens, UniProt P21802). Put plainly: FGFR2 (enzymatic assay), TR-FRET. It counts as biochemical. To be noted: 0.4 μM ATP; read-out: FGFR2 pIC50 (converted). The procedure: In a final reaction volume of 30 μL, FGFR2 (h) (150 ng/ml) was incubated with 50 mM HEPES pH 7.5, 6 mM MnCl2, 1 mM DTT, 0.1 mM Na3VO4, 0.01% Triton-X-100, 500 nM Btn-Flt3 and 0.4 μM ATP in the presence of compound (1% DMSO final). After incubation for 60 minutes at room temperature the reaction was stopped with 2.27 nM EU-anti P-Tyr, 7 mM EDTA, 31.25 nM SA-XL-665 and 0.02% BSA which was present for 60 minutes at room temperature. Time-Resolved Fluorescence Resonance Energy Transfer (TR-FRET) signal (ex340 nm. Em 620 nm, em 655 nm) was measured afterwards and results are expressed in (Relative Fluorescence Units). In this assay, the inhibitory effect of different compound concentrations (range 10 μM to 0.1 nM) was determined and used to calculate an IC50 (M) and pIC50 (−log IC50) value.

The target of data set [1] is T1, Ba/F3-FGFR3-transfected cells (Homo sapiens, UniProt P22607).
T1 construct: BAF3-FGFR3 (MIN IL3) pIC50; other: minus IL3
Put plainly: Ba/F3-FGFR3 (minus IL3 or plus IL3) cellular proliferation assay. The format is cell-based. The note with it: minus IL3. The procedure:
(§1) Ba/F3-FGFR3 (Minus IL3 or Plus IL3) (Cellular Proliferation Assay)
(§2) In a 384 well plate, 100 nI of compound dilution in DMSO was sprayed before adding 50 μl cell culture medium (phenol red free RPMI-1640, 10% FBS, 2 mM L-Glutamine and 50 μg/ml Gentamycin) containing 20000 cells per well of Ba/F3-FGFR3-transfected cells. Cells were put in an incubator at 37° C. and 5% CO2. After 24 hours, 10 μl of Alamar Blue solution (0.5 mM K3Fe(CN)6, 0.5 mM K4Fe(CN)6, 0.15 mM Resazurin and 100 mM Phosphate Buffer) was added to the wells, incubated for 4 hours at 37° C. and 5% CO2 before RFU's (Relative Fluorescence Units) (ex. 540 nm., em. 590 nm.) were measured in a fluororescence plate reader.
(§3) In this assay, the inhibitory effect of different compound concentrations (range 10 μM to 0.1 nM) was determined and used to calculate an IC50 (M) and pIC50 (−log IC50) value. As a counterscreen the same experiment was performed in the presence of 10 ng/ml murine IL3.

In data set [2] the test system is Ba/F3-FGFR3-transfected cells. The data set is described as above. The format is cell-based. To be noted: 24 h; plus 10 ng/ml murine IL3 (counterscreen); read-out: BAF3-FGFR3 (PLUS IL3) pIC50 (converted). The procedure: as §1, §2, §3
In general terms: Counterscreens check selectivity or assay interference.

In data set [3] the target is T2, Ba/F3-KDR-transfected cells (Homo sapiens, UniProt P35968).
T2 construct: BAF3-KDR (MIN IL3) pIC50; other: minus IL3
In words: Ba/F3-KDR (minus IL3 or plus IL3) cellular proliferation assay. It counts as cell-based. The note with it: minus IL3. The procedure: (§4) Ba/F3-KDR (Minus IL3 or Plus IL3) (Cellular Proliferation Assay)
as §2, with “Ba/F3-KDR-transfected” for “Ba/F3-FGFR3-transfected”
as §3

Data set [4] concerns Ba/F3-KDR-transfected cells. The description is as above. It counts as cell-based. The note with it: 24 h; plus 10 ng/ml murine IL3 (counterscreen); read-out: BAF3-KDR (PLUS IL3) pIC50 (converted). The procedure:
as §4
as §2, with “Ba/F3-KDR-transfected” for “Ba/F3-FGFR3-transfected”
as §3

Another data set deals with T3, VEGFR2 (Homo sapiens, UniProt P35968).
T3 construct: purchased Upstate
Put plainly: Biological Assays B: VEGFR2 in vitro kinase inhibitory activity assay. It counts as biochemical. To be noted: 0.5 μM ATP, read-out: VEGFR2 pIC50 (converted). The procedure: (§5) Biological Assays B FGFR3, VEGFR2 and PDGFR In Vitro Kinase Inhibitory Activity Assays
(§6) Enzymes (from Upstate), prepared at 2× final concentration, were incubated with test compounds, biotinylated Fit3 substrate (biotin-VASSDNEYFYVDF) (Cell Signalling Technology Inc.) and ATP in the appropriate assay buffer (Table 1). The reaction was allowed to proceed for 3 hours (FGFR3), 1 hour (VEGFR2, PDGFR-beta) at room temperature on a plate shaker at 700 rpm before being stopped with 35 mM EDTA, pH 8 (FGFR3, VEGFR2) or 55 mM EDTA, pH 8 (PDGFR-beta). 5× detection mix (50 mM HEPES pH 7.5, 0.1% BSA, 11.34 nM Eu-anti-pY (PY20) (PerkinElmer) 74 nM SA-XL665 (Cisbio) for FGFR3, 50 mM HEPES, pH 7.5, 0.1% BSA, 11.34 nM Eu-anti-pY (PY20), 187.5 nM SA-XL665 for VEGFR2 and 50 mM HEPES, pH 7.5, 0.1% BSA, 11.34 nM Eu-anti-pY (PT66) (PerkinElmer), 375 nM SA-XL665 (Cisbio) for PDGFR-beta) was then added to each well and the plate sealed and incubated at room temperature for one hour on a plate shaker at 700 rpm. The plate was then read on a Packard Fusion plate reader or a BMG Pherastar both in TRF mode.

Another data set deals with T4, FGFR3 (Homo sapiens, UniProt P22607).
T4 construct: purchased Upstate
In words: Biological Assays B: FGFR3 in vitro kinase inhibitory activity assay. To be noted: 8 μM ATP, read-out: FGFR3 pIC50 (converted). The format is biochemical. The procedure: as §5, §6

Where only a bound is given, the exact number is not on record here.

Usually melting point stands for the temperature of the solid-liquid transition.

T2 sequence (P35968 whole entry, change not shown): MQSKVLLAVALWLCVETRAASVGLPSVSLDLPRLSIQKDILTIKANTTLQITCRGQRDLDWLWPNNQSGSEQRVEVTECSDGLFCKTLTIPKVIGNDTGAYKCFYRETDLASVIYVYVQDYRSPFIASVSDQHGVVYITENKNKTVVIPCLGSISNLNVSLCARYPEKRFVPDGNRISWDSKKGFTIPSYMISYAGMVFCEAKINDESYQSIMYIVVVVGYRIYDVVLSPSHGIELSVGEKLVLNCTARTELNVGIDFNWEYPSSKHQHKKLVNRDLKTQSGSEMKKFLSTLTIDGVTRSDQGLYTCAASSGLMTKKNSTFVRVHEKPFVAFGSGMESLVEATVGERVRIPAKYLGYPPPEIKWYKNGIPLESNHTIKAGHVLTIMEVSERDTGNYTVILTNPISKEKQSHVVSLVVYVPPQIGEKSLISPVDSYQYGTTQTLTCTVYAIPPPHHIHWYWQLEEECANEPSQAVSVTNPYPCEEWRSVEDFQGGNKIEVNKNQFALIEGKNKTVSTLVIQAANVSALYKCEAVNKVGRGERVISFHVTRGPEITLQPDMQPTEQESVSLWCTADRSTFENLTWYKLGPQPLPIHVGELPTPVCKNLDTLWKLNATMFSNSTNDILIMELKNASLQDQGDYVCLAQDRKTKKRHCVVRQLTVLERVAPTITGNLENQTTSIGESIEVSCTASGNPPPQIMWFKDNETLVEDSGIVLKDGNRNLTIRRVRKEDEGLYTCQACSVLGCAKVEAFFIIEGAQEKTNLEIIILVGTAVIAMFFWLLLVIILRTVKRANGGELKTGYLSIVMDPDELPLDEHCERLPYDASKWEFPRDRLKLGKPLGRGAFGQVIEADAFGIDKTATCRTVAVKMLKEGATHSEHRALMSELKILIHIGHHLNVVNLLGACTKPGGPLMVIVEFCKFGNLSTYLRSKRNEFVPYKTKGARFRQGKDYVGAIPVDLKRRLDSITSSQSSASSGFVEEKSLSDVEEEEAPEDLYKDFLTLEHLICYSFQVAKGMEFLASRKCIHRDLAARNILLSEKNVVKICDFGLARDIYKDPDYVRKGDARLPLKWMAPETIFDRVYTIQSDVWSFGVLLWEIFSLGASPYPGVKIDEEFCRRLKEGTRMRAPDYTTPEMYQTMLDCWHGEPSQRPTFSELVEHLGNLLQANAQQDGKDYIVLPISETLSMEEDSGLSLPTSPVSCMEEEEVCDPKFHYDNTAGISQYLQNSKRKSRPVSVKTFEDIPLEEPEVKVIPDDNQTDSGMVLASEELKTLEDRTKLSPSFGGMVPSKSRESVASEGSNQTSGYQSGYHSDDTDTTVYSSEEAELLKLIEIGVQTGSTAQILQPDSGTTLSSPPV
T1 sequence (P22607 whole entry, change not shown): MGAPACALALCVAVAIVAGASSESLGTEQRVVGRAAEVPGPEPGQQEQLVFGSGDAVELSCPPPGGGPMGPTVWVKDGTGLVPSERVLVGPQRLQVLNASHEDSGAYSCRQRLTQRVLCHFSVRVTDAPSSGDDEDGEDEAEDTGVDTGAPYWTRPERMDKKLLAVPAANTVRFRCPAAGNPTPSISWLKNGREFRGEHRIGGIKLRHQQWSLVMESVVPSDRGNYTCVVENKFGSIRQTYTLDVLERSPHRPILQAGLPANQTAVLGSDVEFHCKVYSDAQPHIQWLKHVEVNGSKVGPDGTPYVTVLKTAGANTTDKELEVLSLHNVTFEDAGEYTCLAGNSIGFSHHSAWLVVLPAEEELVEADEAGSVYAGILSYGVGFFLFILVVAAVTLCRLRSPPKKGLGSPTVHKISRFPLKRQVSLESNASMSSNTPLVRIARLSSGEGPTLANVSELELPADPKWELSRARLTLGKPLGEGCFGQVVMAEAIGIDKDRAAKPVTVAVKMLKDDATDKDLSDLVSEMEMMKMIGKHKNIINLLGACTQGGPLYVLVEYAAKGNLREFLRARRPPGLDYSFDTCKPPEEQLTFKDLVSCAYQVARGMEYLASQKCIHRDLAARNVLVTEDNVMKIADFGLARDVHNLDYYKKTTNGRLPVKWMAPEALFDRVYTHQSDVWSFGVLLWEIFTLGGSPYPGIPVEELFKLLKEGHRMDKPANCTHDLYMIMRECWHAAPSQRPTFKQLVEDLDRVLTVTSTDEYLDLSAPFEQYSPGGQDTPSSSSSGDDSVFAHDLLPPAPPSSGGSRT
T3 sequence (P35968 20-1356): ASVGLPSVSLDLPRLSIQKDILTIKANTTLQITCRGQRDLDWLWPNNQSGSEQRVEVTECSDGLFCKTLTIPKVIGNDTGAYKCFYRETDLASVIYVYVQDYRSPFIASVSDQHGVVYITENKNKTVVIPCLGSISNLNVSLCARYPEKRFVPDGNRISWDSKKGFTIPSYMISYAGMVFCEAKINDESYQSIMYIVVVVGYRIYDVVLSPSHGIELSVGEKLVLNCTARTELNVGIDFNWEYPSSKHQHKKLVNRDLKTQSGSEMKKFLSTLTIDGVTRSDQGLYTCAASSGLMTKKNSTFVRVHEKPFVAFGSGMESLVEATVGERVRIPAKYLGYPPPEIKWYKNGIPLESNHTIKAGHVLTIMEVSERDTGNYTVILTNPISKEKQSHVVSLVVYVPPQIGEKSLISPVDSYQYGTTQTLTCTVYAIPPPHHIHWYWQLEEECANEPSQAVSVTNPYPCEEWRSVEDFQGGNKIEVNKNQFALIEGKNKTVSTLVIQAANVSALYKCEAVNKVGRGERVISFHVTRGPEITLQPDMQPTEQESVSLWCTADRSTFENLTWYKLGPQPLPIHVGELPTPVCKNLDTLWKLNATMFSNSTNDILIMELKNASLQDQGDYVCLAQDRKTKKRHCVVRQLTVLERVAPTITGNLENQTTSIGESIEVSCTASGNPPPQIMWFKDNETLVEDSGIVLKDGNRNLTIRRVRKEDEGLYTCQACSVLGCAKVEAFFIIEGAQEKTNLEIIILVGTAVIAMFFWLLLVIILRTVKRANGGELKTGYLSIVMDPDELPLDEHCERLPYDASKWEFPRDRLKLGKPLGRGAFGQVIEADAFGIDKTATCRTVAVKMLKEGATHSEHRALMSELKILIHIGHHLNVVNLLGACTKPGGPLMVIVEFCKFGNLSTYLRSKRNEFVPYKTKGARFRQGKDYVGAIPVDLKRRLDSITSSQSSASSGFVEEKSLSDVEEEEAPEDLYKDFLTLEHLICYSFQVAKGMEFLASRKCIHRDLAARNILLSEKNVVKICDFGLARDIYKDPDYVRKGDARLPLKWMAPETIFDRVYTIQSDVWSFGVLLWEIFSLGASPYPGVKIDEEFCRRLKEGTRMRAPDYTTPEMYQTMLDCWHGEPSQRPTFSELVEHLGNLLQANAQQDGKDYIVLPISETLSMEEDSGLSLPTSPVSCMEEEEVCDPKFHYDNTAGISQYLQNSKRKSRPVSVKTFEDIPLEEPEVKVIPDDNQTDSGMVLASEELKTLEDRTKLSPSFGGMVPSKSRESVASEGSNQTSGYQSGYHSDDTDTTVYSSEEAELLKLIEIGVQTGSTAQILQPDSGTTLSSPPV
Sequence of FGFR2 (h) (P21802 22-821): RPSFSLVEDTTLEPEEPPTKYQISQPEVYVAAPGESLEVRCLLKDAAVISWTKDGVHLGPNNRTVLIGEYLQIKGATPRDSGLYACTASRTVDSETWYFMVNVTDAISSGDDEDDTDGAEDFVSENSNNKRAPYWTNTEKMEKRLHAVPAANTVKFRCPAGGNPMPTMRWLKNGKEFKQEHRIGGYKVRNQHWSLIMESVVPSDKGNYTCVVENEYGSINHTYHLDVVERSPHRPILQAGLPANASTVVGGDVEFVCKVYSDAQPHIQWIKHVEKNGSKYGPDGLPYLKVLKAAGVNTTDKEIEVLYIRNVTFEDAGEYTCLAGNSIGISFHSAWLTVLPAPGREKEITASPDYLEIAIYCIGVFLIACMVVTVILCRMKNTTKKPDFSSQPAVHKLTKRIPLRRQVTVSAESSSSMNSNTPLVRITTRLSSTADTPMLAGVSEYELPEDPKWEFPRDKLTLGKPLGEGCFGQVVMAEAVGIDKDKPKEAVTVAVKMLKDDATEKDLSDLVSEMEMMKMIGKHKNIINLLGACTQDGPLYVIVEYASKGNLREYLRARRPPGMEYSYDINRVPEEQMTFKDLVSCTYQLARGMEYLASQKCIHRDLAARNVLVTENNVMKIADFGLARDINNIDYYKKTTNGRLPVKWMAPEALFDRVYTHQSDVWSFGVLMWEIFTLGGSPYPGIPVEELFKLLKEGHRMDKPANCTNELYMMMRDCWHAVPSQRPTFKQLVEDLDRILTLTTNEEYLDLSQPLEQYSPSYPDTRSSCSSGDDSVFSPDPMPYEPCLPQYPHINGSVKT
T4 sequence (P22607 23-806): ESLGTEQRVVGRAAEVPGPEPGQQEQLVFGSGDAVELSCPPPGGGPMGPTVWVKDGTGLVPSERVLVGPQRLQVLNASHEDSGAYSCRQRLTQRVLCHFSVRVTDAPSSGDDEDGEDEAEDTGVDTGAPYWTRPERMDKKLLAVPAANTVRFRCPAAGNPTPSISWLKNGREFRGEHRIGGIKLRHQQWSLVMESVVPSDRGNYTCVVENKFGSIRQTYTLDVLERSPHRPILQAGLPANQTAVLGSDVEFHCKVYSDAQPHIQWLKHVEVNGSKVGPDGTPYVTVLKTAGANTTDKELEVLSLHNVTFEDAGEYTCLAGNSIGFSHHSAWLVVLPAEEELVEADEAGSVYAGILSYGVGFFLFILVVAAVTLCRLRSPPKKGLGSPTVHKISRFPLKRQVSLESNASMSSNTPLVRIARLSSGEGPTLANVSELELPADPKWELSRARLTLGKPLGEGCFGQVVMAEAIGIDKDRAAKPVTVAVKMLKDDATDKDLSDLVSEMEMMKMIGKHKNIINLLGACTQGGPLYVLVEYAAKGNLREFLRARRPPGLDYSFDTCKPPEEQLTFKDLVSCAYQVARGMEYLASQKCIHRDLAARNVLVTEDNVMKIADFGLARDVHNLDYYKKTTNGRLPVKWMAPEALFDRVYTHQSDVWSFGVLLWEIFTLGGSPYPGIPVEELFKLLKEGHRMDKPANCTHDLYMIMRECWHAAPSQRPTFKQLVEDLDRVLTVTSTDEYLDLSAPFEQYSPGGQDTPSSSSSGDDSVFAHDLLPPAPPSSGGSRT

As for `COc1cc(OC)cc(C(CC#N)c2ccc3ncc(-c4cnn(C)c4)nc3c2)c1` (stereo not drawn) [Compound 18], the IC50 on FGFR2 (h) is 0.145 µM; in data set [2], more than 10 µM; in data set [4] it was more than 10 µM; at VEGFR2 it was 6.31 µM. Moreover, the “BAF3-FGFR3 (MIN IL3) pIC50” value in data set [1] is listed as 5.48. For the same compound, in data set [3], the “BAF3-KDR (MIN IL3) pIC50” value is listed as less than 5.
Compound `COc1cc(OC)cc(C(CCN)c2ccc3ncc(-c4cnn(C)c4)nc3c2)c1.Cl` (stereo not drawn) [Compound 20] gave a melting point of 211 °C. For the same compound, the IC50 at FGFR2 (h) is 0.0676 µM. In data set [1], the “BAF3-FGFR3 (MIN IL3) pIC50” value is reported as 6.04. Further, in data set [2], the IC50 was more than 10 µM. Further, the “BAF3-KDR (MIN IL3) pIC50” value in data set [3] is given as less than 5. Also, the IC50 in data set [4] is more than 10 µM. Moreover, the IC50 at VEGFR2 is 3.16 µM.
`COc1cc(OC)cc(C(CCO)c2ccc3ncc(-c4cnn(C)c4)nc3c2)c1` (stereo not drawn) [Compound 22] registered a melting point of 114 °C. Also, the IC50 on FGFR2 (h) is 0.126 µM. For the same compound, the “BAF3-FGFR3 (MIN IL3) pIC50” value in data set [1] is 5.65. Besides, in data set [2], the IC50 was more than 10 µM. In addition, the “BAF3-KDR (MIN IL3) pIC50” value in data set [3] is less than 5. Besides, the IC50 in data set [4] is more than 10 µM. Moreover, the IC50 at VEGFR2 was 3.98 µM.
Regarding `COc1cc(OC)cc(C(CCNC(C)C)c2ccc3ncc(-c4cnn(C)c4)nc3c2)c1.Cl` (stereo not drawn) [Compound 29, {3-(3,5-Dimethoxy-phenyl)-3-[3-(1-methyl-1H-pyrazol-4-yl)-quinoxalin-6-yl]-propyl}-isopropyl-amine], the melting point worked out at 148 °C. On FGFR2 (h), the IC50 is 0.0257 µM. Besides, the “BAF3-FGFR3 (MIN IL3) pIC50” value in data set [1] worked out at 6.44. For the same compound, in data set [2], the IC50 was more than 10 µM. Besides, the “BAF3-KDR (MIN IL3) pIC50” value in data set [3] is given as less than 5. Besides, the IC50 in data set [4] was more than 10 µM. The IC50 at FGFR3 was 0.02 µM. Besides, on VEGFR2, the IC50 was 1 µM.
`COc1cc(OC)cc(C2(c3ccc4ncc(-c5cnn(C)c5)nc4c3)CC2)c1` [Compound 30] returned a melting point of 140 °C. For the same compound, the IC50 on FGFR2 (h) was 0.0501 µM. Besides, the “BAF3-FGFR3 (MIN IL3) pIC50” value in data set [1] came to 5.63. Further, the IC50 in data set [2] is more than 10 µM. In addition, the “BAF3-KDR (MIN IL3) pIC50” value in data set [3] is less than 5. Further, the IC50 in data set [4] was more than 10 µM. Also, on FGFR3, the IC50 is 0.02 µM. In addition, the IC50 on VEGFR2 is 0.282 µM.
`COc1cc(OC)cc(/C(=C/CN(C)C)c2ccc3ncc(-c4cnn(C)c4)nc3c2)c1` [Compound 34] came in with a melting point of 177 °C. For the same compound, the IC50 at FGFR2 (h) is 0.17 µM. In addition, the “BAF3-FGFR3 (MIN IL3) pIC50” value in data set [1] is reported as approximately 5.13. The IC50 in data set [2] is more than 10 µM. Also, the “BAF3-KDR (MIN IL3) pIC50” value in data set [3] is listed as less than 5. In addition, in data set [4], the IC50 was more than 10 µM.
Regarding `COc1cc(OC)cc(/C(=C\C#N)c2ccc3ncc(-c4cnn(C)c4)nc3c2)c1` [Compound 4], the melting point was 204 °C. For the same compound, on FGFR2 (h), the IC50 was 0.102 µM. Besides, in data set [1], the “BAF3-FGFR3 (MIN IL3) pIC50” value was 5.76. Also, in data set [2], the IC50 was more than 10 µM. In data set [3], the “BAF3-KDR (MIN IL3) pIC50” value is listed as less than 5. Also, the IC50 in data set [4] was more than 10 µM.
Take `COc1cc(OC)cc(/C(=C/C#N)c2ccc3ncc(-c4cnn(C)c4)nc3c2)c1` [Compound 3]: the melting point stood at 223 °C. Moreover, at FGFR2 (h), the IC50 was 5.13 µM. In data set [1], the “BAF3-FGFR3 (MIN IL3) pIC50” value was found to be 5.29. Moreover, the IC50 in data set [2] was more than 10 µM. The “BAF3-KDR (MIN IL3) pIC50” value in data set [3] is listed as less than 5. Also, the IC50 in data set [4] was more than 10 µM.
Take `CNCC(O)(c1cc(OC)cc(OC)c1)c1ccc2ncc(-c3cnn(C)c3)nc2c1.Cl` (single isomer, unassigned) [Compound 37]: the melting point worked out at 174 °C. Moreover, the IC50 at FGFR2 (h) is 0.589 µM. Further, the “BAF3-FGFR3 (MIN IL3) pIC50” value in data set [1] is listed as less than 5. Moreover, the IC50 in data set [2] is more than 10 µM. For the same compound, in data set [3], the “BAF3-KDR (MIN IL3) pIC50” value is recorded as less than 5. In addition, in data set [4], the IC50 is more than 10 µM.

These data come from patent publication US9290478B2, “Substituted quinoxalines as FGFR kinase inhibitors” (ASTEX THERAPEUTICS LTD, priority 2010, dated 2016).
